What was measured:
[1] = system: BRCA mutant human breast cancer MDA-MB-436 cell line; assay: Growth inhibition of MDA-MB-436 cells, CTG (Celltiter-Glo) method; type: cell-based; conditions: MDA-MB-436, 168 h, 7 days incubation, read-out: IC50 (nM), inhibition of proliferation of MDA-MB-436 cells, CTG method
Method: (§1) The cells were cultured in complete medium (DMEM medium+10% FBS+Insulin+glutathione). When the confluence reached about 80%, cells were digested and gently dispensed from the bottom of the dish with a 1 mL pipette. Cell suspension was collected and centrifuged at 500 rpm for 3 min. The supernatant was discarded, and the cell pellet were re-suspended in complete medium. The cells were seeded into a culture dish at an appropriate proportion, and then cultured in a 5% CO2 incubator at 37° C. The assay was carried out when the cells were in optimum condition and the confluence was reached 80%. Cells in the logarithmic growth phase were taken to centrifugate, and the culture supernatant was removed. The cells were resuspended in refresh complete medium and counted. The resuspended cells were seeded at 3000/well in a 96-well plate and incubated at 37° C., 5% CO2 incubator overnight. The compound was prepared as below: 1000× dilution tested compound solution to 40× test compound solution by adding 5 μL 1000× compound solution to 120 μL Medium (25-fold dilution). The solution was mixed by oscillation, 0.1% DMSO was used as the control.
(§2) The next day, the 96-well plate inoculated with cells was taken out from the incubator, and the culture supernatant was removed. Then fresh medium of 195 uL/well and 5 μL/well of 40× test compound solution as mentioned above were added into the 96 well plate, respectively. Finally, the plate was incubated for 7 days in a 37° C. 5% CO2 incubator. The medium containing compound was changed on the fourth day.
CTG Method: After 7 days, 100 μL Celltiter-Glo reagent was added to each well, and then the plate was shake for 2 minutes to fully lysate. Then the plate was incubated at room temperature for 10 minutes, and the chemiluminescence values were read by plate reader.
The inhibitory activity of compounds on cell proliferation was plotted using cell survival rate against the compound concentration as coordinates. Cell inhibition rate %=(Lumcompound−LumDMSO)/(Lummedium−LumDMSO)×100. Lum refers to the chemiluminescence value.
XL Fit software was used to Fit nonlinear s-curve regression to Fit the data to obtain dose-effect curves, from which IC50 values were calculated. Y=Bottom+(Top−Bottom)/(1+10^((Log IC50−X)×slope)), Where Y is the cell inhibition rate, X is the compound concentration, Bottom is the lowest inhibition rate. Top is the highest inhibition rate.
Table 2 summarizes the inhibitory effect data (IC50) of the compounds on the proliferation of human breast cancer cells MDA-MB-436 determined by CTG method.

[2] = system: BRCA mutant human breast cancer MDA-MB-436 cell line; assay: Growth inhibition of MDA-MB-436 cells, CCK-8 method; type: cell-based; conditions: MDA-MB-436, 168 h, 7 days incubation, read-out: IC50 (nM), inhibition of proliferation of MDA-MB-436 cells, CCK-8 method
Method: as §1, §2
CCK Method: After 7 days, 20 μL of CCK-8 was added to each well and shaken gently, then was cultured for 4 hours. The plate was shaken for 5 min after incubation, the absorbance values of 450 nm or 650 nm wavelengths were recorded respectively (OD=absorbance value of 450 nm−absorbance value of 650 nm) by using the multifunction readout instrument.
Data were analyzed by software GraphPad Prism 6.0. The inhibitory activity of compounds on cell proliferation was plotted using cell survival rate against the compound concentration as coordinates. Cell survival rate %=(ODcompound−ODbackground)/(ODDMSO−ODbackground)×100. The IC50 value was fitted by the s-shaped dose response curve equation: Y=100/(1+10^(log C−log IC50)), and C was the compound concentration.
Table 3 summarizes the inhibitory effect data (IC50) of the compounds on the proliferation of human breast cancer cells MDA-MB-436 determined by CCK-8 method.

USP1/UAF1 = USP1/UAF1 (Homo sapiens (Human), UniProt O94782); assay: USP1/UAF1 activity, ubiquitin-rhodamine110-glycine (Ub-Rho) assay; type: biochemical; conditions: 0.1 nM USP1/UAF1, 100 nM Ub-Rho, 120 minutes; read-out: IC50 (nM), inhibitory effects on USP1/UAF1 activity
Method: USP1/UAF1 activity was determined by using ubiquitin-rhodamine110-glycine (Ub-Rho; Boston Biochem) assay. Enzymatic reactions were conducted in an assay buffer (50 mM Tris-HCl, pH 7.8, 0.5 mM EDTA, 100 mM NaCl, 1 mM DTT, 0.01 BSA, and 0.01% Tween-20) that contained 0.1 nM USP1/UAF1. Each individual compound was tested at ten concentrations in the range of 0.0005 to 10 μM. The plates were incubated for 15 min to attain equilibrium, and then the enzymatic reaction was initiated by dispensing 10 μL of Ub-Rho solution (100 nM final concentration). After treating 120 minutes with Ub-Rho solution, the rhodamine fluorescence was acquired using a 480 nm excitation/540 nm emission filter set by using Envision instrument. The inhibition rate of the compound to USP1/UAF1 enzyme activity was calculated according to the following formula.
IC50 value is obtained by fitting the s-shaped dose response curve equation by using XL Fit software. The curve equation is Y=100/(1+10^(log C−log IC50)). C is the compound concentration.

USP1/UAF1, sequence (O94782 whole entry): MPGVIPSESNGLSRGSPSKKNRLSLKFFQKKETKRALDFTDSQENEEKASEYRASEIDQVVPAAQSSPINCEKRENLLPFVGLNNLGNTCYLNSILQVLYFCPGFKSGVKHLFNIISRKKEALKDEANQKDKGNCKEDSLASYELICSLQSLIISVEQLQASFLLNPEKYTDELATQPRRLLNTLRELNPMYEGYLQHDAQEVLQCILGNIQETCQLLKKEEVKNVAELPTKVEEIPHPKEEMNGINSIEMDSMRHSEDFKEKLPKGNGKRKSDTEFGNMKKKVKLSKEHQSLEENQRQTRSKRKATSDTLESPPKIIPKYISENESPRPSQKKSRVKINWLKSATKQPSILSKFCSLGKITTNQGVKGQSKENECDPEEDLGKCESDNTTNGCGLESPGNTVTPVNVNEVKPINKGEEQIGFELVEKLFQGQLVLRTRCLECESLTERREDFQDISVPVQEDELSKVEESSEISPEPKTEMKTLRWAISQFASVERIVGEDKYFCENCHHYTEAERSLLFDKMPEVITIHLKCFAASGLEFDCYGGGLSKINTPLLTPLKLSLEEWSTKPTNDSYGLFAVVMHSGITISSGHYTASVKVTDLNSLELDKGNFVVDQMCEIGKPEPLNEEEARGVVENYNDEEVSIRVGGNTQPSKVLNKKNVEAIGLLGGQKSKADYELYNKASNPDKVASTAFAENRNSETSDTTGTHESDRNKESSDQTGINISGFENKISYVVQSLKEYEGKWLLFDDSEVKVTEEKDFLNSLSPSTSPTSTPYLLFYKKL
USP1/UAF1, sequence (Q8TAF3 whole entry partner): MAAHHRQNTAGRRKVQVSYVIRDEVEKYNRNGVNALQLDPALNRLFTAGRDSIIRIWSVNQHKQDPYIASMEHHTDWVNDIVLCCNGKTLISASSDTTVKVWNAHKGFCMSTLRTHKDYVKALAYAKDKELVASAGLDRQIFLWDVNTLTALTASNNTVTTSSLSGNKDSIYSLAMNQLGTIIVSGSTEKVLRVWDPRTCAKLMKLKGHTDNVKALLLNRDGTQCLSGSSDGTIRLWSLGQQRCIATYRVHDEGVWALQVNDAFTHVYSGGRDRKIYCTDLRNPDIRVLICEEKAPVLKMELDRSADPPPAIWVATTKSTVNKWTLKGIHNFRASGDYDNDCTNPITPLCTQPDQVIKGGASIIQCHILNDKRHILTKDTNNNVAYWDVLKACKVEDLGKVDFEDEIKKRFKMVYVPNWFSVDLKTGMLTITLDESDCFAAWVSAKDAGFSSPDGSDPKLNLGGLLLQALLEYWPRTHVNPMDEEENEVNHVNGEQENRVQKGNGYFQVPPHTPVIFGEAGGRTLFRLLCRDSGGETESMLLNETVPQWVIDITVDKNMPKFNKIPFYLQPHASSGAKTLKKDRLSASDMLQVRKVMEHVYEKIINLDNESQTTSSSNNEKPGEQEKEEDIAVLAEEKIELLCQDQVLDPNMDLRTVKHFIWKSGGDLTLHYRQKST

IC50 [1] | IC50 [2] | IC50 (USP1/UAF1) | Structure (SMILES)
161 nM | – | – | Cc1cn(C)c(-c2ccc(Cc3cccn4nc(-c5ccccc5C(C)C)nc34)cc2)n1 [Example 1, 8-(4-(1,4-dimethyl-1H-imidazol-2-yl)benzyl)-2-(2-isopropylphenyl)-[1,2,4]triazolo[1,5-a]pyridine]
> 1000 nM | – | – | COc1ccccc1-c1nc2c(Cc3ccc(-c4nc(C)cn4C)cc3)cccn2n1 [Example 2, 8-(4-(1,4-dimethyl-1H-imidazol-2-yl)benzyl)-2-(2-methoxyphenyl)-[1,2,4]triazolo[1,5-a]pyridine]
57.6 nM | 111 nM | – | CC(C)c1ccccc1-c1nc2c(Cc3ccc(-c4nc(C(F)(F)F)cn4C)cc3)cccn2n1 [Example 3, 2-(2-isopropylphenyl)-8-(4-(1-methyl-4-(trifluoromethyl)-1H-imidazol-2-yl)benzyl)-[1,2,4]triazolo[1,5-a]pyridine]
– | 25.5 nM | 66.6 nM | COc1ncnc(C2CC2)c1-c1nc2c(Cc3ccc(-c4nc(C(F)(F)F)cn4C(C)C)cc3)cccn2n1 [Example 4, 2-(4-cyclopropyl-6-methoxypyrimidin-5-yl)-8-(4-(1-isopropyl-4-(trifluoromethyl)-1H-imidazol-2-yl)benzyl)-[1,2,4]triazolo[1,5-a]pyridine]
– | 38.8 nM | 39.1 nM | COc1ncnc(C2CC2)c1-c1nc2c(Cc3ccc(-c4nc(C(F)(F)F)cn4C)cc3)cccn2n1 [Example 5, 2-(4-cyclopropyl-6-methoxypyrimidin-5-yl)-8-(4-(1-methyl-4-(trifluoromethyl)-1H-imidazol-2-yl)benzyl)-[1,2,4]triazolo[1,5-a]pyridine]
– | 28.3 nM | 460 nM | COc1ncnc(C2CC2)c1-c1nc2c(Cc3ccc(-n4nc(C(F)(F)F)cc4C)cc3)cccn2n1 [Example 6, 2-(4-cyclopropyl-6-methoxypyrimidin-5-yl)-8-(4-(5-methyl-3-(trifluoromethyl)-1H-pyrazol-1-yl)benzyl)-[1,2,4]triazolo[1,5-a]pyridine]
21.6 nM | 26.4 nM | 30.6 nM | COc1ncnc(C2CC2)c1-c1nc2cccc(Cc3ccc(-c4nc(C(F)(F)F)cn4C)cc3)n2n1 [Example 14, 2-(4-cyclopropyl-6-methoxypyrimidin-5-yl)-5-(4-(1-methyl-4-(trifluoromethyl)-1H-imidazol-2-yl)benzyl)-[1,2,4]triazolo[1,5-a]pyridine]
– | 13.2 nM | 15.8 nM | Cc1cnn(C(C)C)c1-c1nc2c(Cc3ccc(-c4nc(C(F)(F)F)cn4C)cc3)cccn2n1 [Example 16, 2-(1-isopropyl-4-methyl-1H-pyrazol-5-yl)-8-(4-(1-methyl-4-(trifluoromethyl)-1H-imidazol-2-yl)benzyl)-[1,2,4]triazolo[1,5-a]pyridine]
– | 39.5 nM | – | Cc1cnn(C(C)C)c1-c1nc2c(Cc3ccc(-c4nc(C(F)(F)F)cn4C)cc3)ccnn2n1 [Example 17, 2-(1-isopropyl-4-methyl-1H-pyrazol-5-yl)-8-(4-(1-methyl-4-(trifluoromethyl)-1H-imidazol-2-yl)benzyl)-[1,2,4]triazolo[1,5-b]pyridazine]
– | 44.8 nM | 138 nM | COc1ncnc(C2CC2)c1-c1nc2c(Cc3ccc(-c4nc(C(F)(F)F)cn4C)cc3)cncn2n1 [Example 19, 2-(4-cyclopropyl-6-methoxypyrimidin-5-yl)-8-(4-(1-methyl-4-(trifluoromethyl)-1H-imidazol-2-yl)benzyl)-[1,2,4]triazolo[1,5-c]pyrimidine]
227 nM | – | 147 nM | COc1ncnc(C2CC2)c1-c1nc2cncc(Cc3ccc(-c4nc(C(F)(F)F)cn4C)cc3)n2n1 [Example 22, 2-(4-cyclopropyl-6-methoxypyrimidin-5-yl)-5-(4-(1-methyl-4-(trifluoromethyl)-1H-imidazol-2-yl)benzyl)-[1,2,4]triazolo[1,5-a]pyrazine]
496 nM | – | 175 nM | COc1ncnc(C2CC2)c1-c1nc2nccc(Cc3ccc(-c4nc(C(F)(F)F)cn4C)cc3)n2n1 [Example 23, 2-(4-cyclopropyl-6-methoxypyrimidin-5-yl)-7-(4-(1-methyl-4-(trifluoromethyl)-1H-imidazol-2-yl)benzyl)-[1,2,4]triazolo[1,5-a]pyrimidine]
158 nM | – | – | COc1ncnc(OC)c1-c1nc2c(Cc3ccc(-c4nc(C(F)(F)F)cn4C)cc3)cccn2n1 [Example 27, 2-(4,6-dimethoxypyrimidin-5-yl)-8-(4-(1-methyl-4-(trifluoromethyl)-1H-imidazol-2-yl)benzyl)-[1,2,4]triazolo[1,5-a]pyridine]
40.6 nM | – | 26 nM | COc1ncnc(C2CCC2)c1-c1nc2c(Cc3ccc(-c4nc(C(F)(F)F)cn4C)cc3)cccn2n1 [Example 28, 2-(4-cyclobutyl-6-methoxypyrimidin-5-yl)-8-(4-(1-methyl-4-(trifluoromethyl)-1H-imidazol-2-yl)benzyl)-[1,2,4]triazolo[1,5-a]pyridine]
21.1 nM | – | 19.9 nM | COc1ncnc(C2CC2)c1-c1nc2ccnc(Cc3ccc(-c4nc(C(F)(F)F)cn4C4CC4)cc3)n2n1 [Example 40, 5-(4-(1-cyclopropyl-4-(trifluoromethyl)-1H-imidazol-2-yl)benzyl)-2-(4-cyclopropyl-6-methoxypyrimidin-5-yl)-[1,2,4]triazolo[1,5-c]pyrimidine]
55.3 nM | – | 34.2 nM | COc1ncnc(C2CC2)c1-c1nc2ccnc(Cc3ccc(-c4nc(C(F)(F)F)cn4C)c(F)c3)n2n1 [Example 41, 2-(4-cyclopropyl-6-methoxypyrimidin-5-yl)-5-(3-fluoro-4-(1-methyl-4-(trifluoromethyl)-1H-imidazol-2-yl)benzyl)-[1,2,4]triazolo[1,5-c]pyrimidine]

Reference: US20240409538A1, “SUBSTITUTED TRIAZOLOHETEROARYL COMPOUNDS AS USP1 INHIBITORS AND THE USE THEREOF” (IMPACT THERAPEUTICS (SHANGHAI), INC., priority 2021, published 2024)
